Assay results published in patent US10131652B2, “Pyrimidinyloxy benzene derivatives as herbicides” (E. I. DU PONT DE NEMOURS AND COMPANY, priority 2014, dated 2018).
Where two headings read alike, the source gives them in different places.

Tests used:
Type in all cases: in vivo
[1] = tested on: blackgrass (Alopecurus myosuroides); assay: Test D pre-/postemergence plant response; conditions: Alopecurus myosuroides, pre-emergence, Preemergence, scale 0 to 100 (0 no effect, 100 complete control), read-out: Plant response rating, Blackgrass
How it was run: (§1)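 Each compound, in non-phytotoxic solvent with surfactant, was sprayed onto soil right after sowing or onto young plants 2 to 18 cm tall. After 13 to 15 days under greenhouse conditions, effects were judged visually against controls on a 0 (no effect) to 100 (complete control) scale.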

[2] = tested on: velvetleaf (Abutilon theophrasti); assay: Test D pre-/postemergence plant response; conditions: Abutilon theophrasti; for pest or weed control at 31 g/ha: 31 g ai/ha; for pest or weed control at 62 g/ha: 62 g ai/ha; for pest or weed control at 125 g/ha: 125 g ai/ha
How it was run: as §1

[3] = tested on: johnsongrass (Sorghum halepense); assay: Test D pre-/postemergence plant response; conditions: Sorghum halepense; for pest or weed control at 31 g/ha: 31 g ai/ha; for pest or weed control at 62 g/ha: 62 g ai/ha; for pest or weed control at 125 g/ha: 125 g ai/ha
How it was run: as §1

[4] = tested on: barnyardgrass (Echinochloa crus-galli); assay: Test B pre-/postemergence plant response; conditions: for pest or weed control at 31 g/ha: 31 g ai/ha
How it was run: (§2)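 Visual injury scores on a 0–100 scale (100 = complete control) relative to untreated plants, taken about 10 days post-treatment in greenhouse. Treatments were a directed preemergence soil spray and a postemergence spray at one- to two-leaf stage, using surfactant-containing solvent formulation.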

[5] = tested on: pigweed (Amaranthus retroflexus); assay: Test B pre-/postemergence plant response; conditions: for pest or weed control at 31 g/ha: 31 g ai/ha
How it was run: as §2

[6] = tested on: giant foxtail (Setaria faberii); assay: Test B pre-/postemergence plant response; conditions: for pest or weed control at 31 g/ha: 31 g ai/ha
How it was run: as §2

corn (Zea mays) = assay: Test B pre-/postemergence plant response; conditions: Zea mays, post-emergence, 240 h
How it was run: as §2

[7] = tested on: wheat (Triticum aestivum); assay: Test B pre-/postemergence plant response; conditions: Triticum aestivum, post-emergence, 240 h, read-out: Plant response rating, Wheat
How it was run: as §2

[8] = tested on: barnyardgrass (Echinochloa crus-galli); assay: Test C flooded paddy test plant response; conditions: Echinochloa crus-galli; Flood, 250 g ai/ha; scale of 0 to 100 where 0 is no effect and 100 is complete control; 13 to 15 days; read-out: Barnyardgrass plant response rating
How it was run: (§3)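 Plants grown to the 2-leaf stage; pots flooded to 3 cm above soil, test compounds applied directly to paddy water, depth maintained throughout. Greenhouse for 13 to 15 days, then visual rating versus controls on a 0–100 scale (0 no effect, 100 complete control).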

[9] = tested on: small-flower umbrella sedge (Cyperus difformis); assay: Test C flooded paddy test plant response; conditions: Cyperus difformis; Flood, 250 g ai/ha; scale of 0 to 100 where 0 is no effect and 100 is complete control; 13 to 15 days; read-out: Sedge, Umbrella plant response rating
How it was run: as §3

[10] = tested on: ducksalad (Heteranthera limosa); assay: Test C flooded paddy test plant response; conditions: Heteranthera limosa; Flood, 250 g ai/ha; scale of 0 to 100 where 0 is no effect and 100 is complete control; 13 to 15 days; read-out: Ducksalad plant response rating
How it was run: as §3

rice (Oryza sativa) = assay: Test C flooded paddy test plant response; conditions: Oryza sativa; Flood, 250 g ai/ha; scale of 0 to 100 where 0 is no effect and 100 is complete control; 13 to 15 days; read-out: Rice plant response rating
How it was run: as §3

[11] = post-emergence, Postemergence, scale 0 to 100, 0 no effect, 100 complete control, read-out: Plant response rating, Velvetleaf
[12] = pre-emergence, Preemergence, scale 0 to 100 (0 no effect, 100 complete control), read-out: Plant response rating, Velvetleaf
[13] = post-emergence, Postemergence, scale 0 to 100, 0 no effect, 100 complete control, read-out: Plant response rating, Johnsongrass
[14] = pre-emergence, Preemergence, scale 0 to 100 (0 no effect, 100 complete control), read-out: Plant response rating, Johnsongrass
[15] = Preemergence, 125 g ai/ha, 0 to 100 scale (0 no effect, 100 complete control)
[16] = 125 g ai/ha, postemergence, 0 to 100 scale, 0 no effect, 100 complete control
[17] = Postemergence, 31 g ai/ha, 0 to 100 scale (0 no effect, 100 complete control)

Compound: Fc1cccc(Oc2ncc(Br)cn2)c1-c1cc(C(F)F)no1 [Compound 145, 5-bromo-2-[2-[3-(difluoromethyl)-5-isoxazolyl]-3-fluorophenoxy]pyrimidine]
- pest or weed control at 31 g/ha ([1]; 31 g ai/ha): 90%
- pest or weed control at 62 g/ha ([1]; 62 g ai/ha): 95%
- pest or weed control at 31 g/ha ([2]; post-emergence, Postemergence, scale 0 to 100 (0 no effect, 100 complete control), read-out: Velvetleaf plant response rating): 70%
- pest or weed control at 62 g/ha [2, 11]: 75%
- pest or weed control at 125 g/ha [2, 11]: 80%
- pest or weed control at 125 g/ha ([2]; pre-emergence, Preemergence, read-out: Plant response rating (scale 0 to 100), Velvetleaf): 100%
- pest or weed control at 16 g/ha ([2]; pre-emergence, Preemergence, 16 g ai/ha, scale 0 to 100 (0 no effect, 100 complete control), read-out: Plant response rating, Velvetleaf): 90%
- pest or weed control at 31 g/ha [2, 12]: 100%
- pest or weed control at 62 g/ha [2, 12]: 100%
- pest or weed control at 31 g/ha ([3]; post-emergence, Postemergence, scale 0 to 100 (0 no effect, 100 complete control), read-out: Johnsongrass plant response rating): 5%
- pest or weed control at 62 g/ha [3, 13]: 5%
- pest or weed control at 125 g/ha [3, 13]: 40%
- pest or weed control at 125 g/ha ([3]; pre-emergence, Preemergence, read-out: Plant response rating (scale 0 to 100), Johnsongrass): 95%
- pest or weed control at 16 g/ha ([3]; pre-emergence, Preemergence, 16 g ai/ha, scale 0 to 100 (0 no effect, 100 complete control), read-out: Plant response rating, Johnsongrass): 10%
- pest or weed control at 31 g/ha [3, 14]: 75%
- pest or weed control at 62 g/ha [3, 14]: 90%
- pest or weed control at 125 g/ha ([4]; Echinochloa crus-galli, post-emergence, 240 h, 125 g ai/ha, postemergence, 0 to 100 scale, 0 no effect, 100 complete control, read-out: Plant response rating, Barnyardgrass): 100%
- pest or weed control at 31 g/ha ([4]; Echinochloa crus-galli, post-emergence, 240 h, Postemergence, 0 to 100 scale (0 no effect, 100 complete control), read-out: Plant response rating, Barnyardgrass): 40%
- pest or weed control at 31 g/ha ([4]; Echinochloa crus-galli, pre-emergence, 240 h, Preemergence, 0 to 100 scale where 0 is no effect and 100 is complete control, read-out: Plant response rating, Barnyardgrass): 70%
- Barnyardgrass plant response rating [4, 15]: 100
- pest or weed control at 125 g/ha ([5]; Amaranthus retroflexus, post-emergence, 240 h, 125 g ai/ha, postemergence, 0 to 100 scale, 0 no effect, 100 complete control, read-out: Plant response rating, Pigweed): 100%
- pest or weed control at 31 g/ha ([5]; Amaranthus retroflexus, post-emergence, 240 h, Postemergence, 0 to 100 scale (0 no effect, 100 complete control), read-out: Plant response rating, Pigweed): 100%
- pest or weed control at 31 g/ha ([5]; Amaranthus retroflexus, pre-emergence, 240 h, Preemergence, 0 to 100 scale where 0 is no effect and 100 is complete control, read-out: Plant response rating, Pigweed): 100%
- Pigweed plant response rating [5, 15]: 100
- Foxtail, Giant plant response rating [6, 15]: 100
- pest or weed control at 125 g/ha ([6]; Setaria faberi, post-emergence, 240 h, 125 g ai/ha, postemergence, 0 to 100 scale, 0 no effect, 100 complete control, read-out: Plant response rating, Foxtail, Giant): 90%
- pest or weed control at 31 g/ha ([6]; Setaria faberi, post-emergence, 240 h, Postemergence, 0 to 100 scale (0 no effect, 100 complete control), read-out: Plant response rating, Foxtail, Giant): 70%
- pest or weed control at 31 g/ha ([6]; Setaria faberi, pre-emergence, 240 h, Preemergence, 0 to 100 scale where 0 is no effect and 100 is complete control, read-out: Plant response rating, Foxtail, Giant): 90%
- Corn plant response rating (crop injury, 0 = no effect, 100 = complete kill) at 125 g/ha (corn (Zea mays); [16]): 70%
- Corn plant response rating (crop injury, 0 = no effect, 100 = complete kill) at 31 g/ha (corn (Zea mays); [17]): 30%
- plant injury at 125 g/ha [7, 16]: 70%
- plant injury at 31 g/ha [7, 17]: 20%
- pest or weed control at 250 g/ha [8]: 45%
- pest or weed control at 250 g/ha [9]: 95%
- pest or weed control at 250 g/ha [10]: 90%
- plant injury at 250 g/ha (rice (Oryza sativa)): 35%
